Results: US6737383B1, “Herbicidal oxadiazolidines” (priority 1999, dated 2004)

Legend:
bedstraw = test: Test B pre/postemergence bedstraw; assay type: in vivo, Galium aparine
In short: (§1)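 Herbicidal effect was estimated by eye on a ten-point control scale after plants spent twelve to sixteen days in a greenhouse following soil or foliar treatment. Foliar sprays targeted plants at one to four leaves; all doses were formulated in a non-phytotoxic solvent with surfactant.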

blackgrass = test: Test B pre/postemergence blackgrass; assay type: in vivo, Alopecurus myosuroides
In short: as §1

surinam grass = test: Test B pre/postemergence surinam grass; assay type: in vivo, Brachiaria decumbens
In short: as §1

cocklebur = test: Test B pre/postemergence cocklebur; assay type: in vivo, Xanthium strumarium
In short: as §1

corn = test: Test B pre/postemergence corn; assay type: in vivo, Zea mays
In short: as §1

crabgrass = test: Test B pre/postemergence crabgrass; assay type: in vivo, Digitaria sanguinalis
In short: as §1

giant foxtail = test: Test B pre/postemergence giant foxtail; assay type: in vivo, Setaria faberii
In short: as §1

morningglory = test: Test B pre/postemergence morningglory; assay type: in vivo, Ipomoea hederacea
In short: as §1

pigweed = test: Test B pre/postemergence pigweed; assay type: in vivo, Amaranthus retroflexus
In short: as §1

rape = test: Test B pre/postemergence rape; assay type: in vivo, Brassica napus
In short: as §1

soybean = test: Test B pre/postemergence soybean; assay type: in vivo, Glycine max
In short: as §1

sugar beet = test: Test B pre/postemergence sugar beet; assay type: in vivo, Beta vulgaris
In short: as §1

velvetleaf = test: Test B pre/postemergence velvetleaf; assay type: in vivo, Abutilon theophrasti
In short: as §1

wheat = test: Test B pre/postemergence wheat; assay type: in vivo, Triticum aestivum
In short: as §1

wild oat = test: Test B pre/postemergence wild oat; assay type: in vivo, Avena fatua
In short: as §1

purple nutsedge = test: Test B pre/postemergence purple nutsedge; assay type: in vivo, Cyperus rotundus
In short: as §1

[1] = Preemergence, Rate 62 g/ha, scale of 0 to 10 where 0 is no effect and 10 is complete control
[2] = Preemergence, Rate 125 g/ha, 0 is no effect, 10 is complete control
[3] = Preemergence, Rate 250 g/ha, scale 0 to 10, 0 is no effect, 10 is complete control
[4] = Preemergence, Rate 500 g/ha, scale 0 to 10 (0 no effect, 10 complete control)
[5] = Rate 62 g/ha, Postemergence, scale of 0 to 10 where 0 is no effect and 10 is complete control
[6] = Rate 125 g/ha, Postemergence, scale 0 to 10
[7] = Rate 500 g/ha, Postemergence, scale 0 to 10

CC(C)N(C(=O)n1oc(=O)n(CC2CO2)c1=O)c1ccc(F)cc1 (centres unmarked) [Compound 188]
Bedstraw plant response rating (bedstraw; [1]): 0 | Bedstraw plant response rating (0 to 10 scale) (bedstraw; [2]): 0 | Bedstraw plant response rating (bedstraw; [3]): 0 | Bedstraw plant response rating (bedstraw; [4]): 0 | Bedstraw plant response rating (bedstraw; [5]): 0 | Bedstraw plant response rating (bedstraw; [6]): 0 | Plant response rating (0 to 10; 0 is no effect, 10 is complete control), Bedstraw (bedstraw; Rate 250 g/ha, Postemergence): 3 | Bedstraw plant response rating (bedstraw; [7]): 5 | Blackgrass plant response rating (blackgrass; [1]): 0 | Blackgrass plant response rating (0 to 10 scale) (blackgrass; [2]): 0 | Blackgrass plant response rating (blackgrass; [3]): 0 | Blackgrass plant response rating (blackgrass; [4]): 0 | Blackgrass plant response rating (blackgrass; [5]): 0 | Blackgrass plant response rating (blackgrass; [6]): 0 | Plant response rating (0 to 10; 0 is no effect, 10 is complete control), Blackgrass (blackgrass; Rate 250 g/ha, Postemergence): 0 | Blackgrass plant response rating (blackgrass; [7]): 3 | B. signalgrass plant response rating (surinam grass; [1]): 0 | B. signalgrass plant response rating (0 to 10 scale) (surinam grass; [2]): 0 | B. signalgrass plant response rating (surinam grass; [3]): 6 | B. signalgrass plant response rating (surinam grass; [4]): 7 | B. signalgrass plant response rating (surinam grass; [5]): 0 | B. signalgrass plant response rating (surinam grass; Rate 125 g/ha, Postemergence, scale 0 (no effect) to 10 (complete control)): 0 | Plant response rating, B. signalgrass (surinam grass; Rate 250 g/ha, Postemergence, scale 0 to 10, 0 is no effect, 10 is complete control): 0 | B. signalgrass plant response rating (surinam grass; Rate 500 g/ha, Postemergence, scale 0 to 10, 0 no effect, 10 complete control): 0 | Cocklebur plant response rating (cocklebur; [1]): 0 | Cocklebur plant response rating (0 to 10 scale) (cocklebur; [2]): 0 | Cocklebur plant response rating (cocklebur; [3]): 0 | Cocklebur plant response rating (cocklebur; [4]): 0 | Cocklebur plant response rating (cocklebur; [5]): 0 | Cocklebur plant response rating (cocklebur; [6]): 0 | Plant response rating (0 to 10; 0 is no effect, 10 is complete control), Cocklebur (cocklebur; Rate 250 g/ha, Postemergence): 0 | Cocklebur plant response rating (cocklebur; [7]): 0 | Corn plant response rating (corn; [1]): 0 | Corn plant response rating (0 to 10 scale) (corn; [2]): 0 | Corn plant response rating (corn; [3]): 0 | Corn plant response rating (corn; [4]): 0 | Corn plant response rating (corn; [5]): 0 | Corn plant response rating (corn; [6]): 0 | Plant response rating (0 to 10; 0 is no effect, 10 is complete control), Corn (corn; Rate 250 g/ha, Postemergence): 0 | Corn plant response rating (corn; [7]): 0 | Crabgrass plant response rating (crabgrass; [1]): 0 | Crabgrass plant response rating (0 to 10 scale) (crabgrass; [2]): 0 | Crabgrass plant response rating (crabgrass; [3]): 0 | Crabgrass plant response rating (crabgrass; [4]): 0 | Crabgrass plant response rating (crabgrass; [5]): 0 | Crabgrass plant response rating (crabgrass; [6]): 0 | Plant response rating (0 to 10; 0 is no effect, 10 is complete control), Crabgrass (crabgrass; Rate 250 g/ha, Postemergence): 3 | Crabgrass plant response rating (crabgrass; [7]): 3 | Giant foxtail plant response rating (giant foxtail; [1]): 0 | Giant foxtail plant response rating (0 to 10 scale) (giant foxtail; [2]): 2 | Giant foxtail plant response rating (giant foxtail; [3]): 4 | Giant foxtail plant response rating (giant foxtail; [4]): 7 | Giant foxtail plant response rating (giant foxtail; [5]): 0 | Giant foxtail plant response rating (giant foxtail; [6]): 0 | Plant response rating (0 to 10; 0 is no effect, 10 is complete control), Giant foxtail (giant foxtail; Rate 250 g/ha, Postemergence): 2 | Giant foxtail plant response rating (giant foxtail; [7]): 4 | Morningglory plant response rating (morningglory; [1]): 0 | Morningglory plant response rating (0 to 10 scale) (morningglory; [2]): 0 | Morningglory plant response rating (morningglory; [3]): 0 | Morningglory plant response rating (morningglory; [4]): 0 | Morningglory plant response rating (morningglory; [5]): 0 | Morningglory plant response rating (morningglory; [6]): 0 | Plant response rating (0 to 10; 0 is no effect, 10 is complete control), Morningglory (morningglory; Rate 250 g/ha, Postemergence): 0 | Morningglory plant response rating (morningglory; [7]): 0 | Redroot pigweed plant response rating (pigweed; [1]): 0 | Redroot pigweed plant response rating (0 to 10 scale) (pigweed; [2]): 0 | Redroot pigweed plant response rating (pigweed; [3]): 0 | Redroot pigweed plant response rating (pigweed; [4]): 0 | Redroot pigweed plant response rating (pigweed; [5]): 0 | Redroot pigweed plant response rating (pigweed; [6]): 0 | Plant response rating (0 to 10; 0 is no effect, 10 is complete control), Redroot pigweed (pigweed; Rate 250 g/ha, Postemergence): 0 | Redroot pigweed plant response rating (pigweed; [7]): 3 | Rape plant response rating (rape; [1]): 0 | Rape plant response rating (0 to 10 scale) (rape; [2]): 0 | Rape plant response rating (rape; [3]): 0 | Rape plant response rating (rape; [4]): 0 | Rape plant response rating (rape; [5]): 0 | Rape plant response rating (rape; [6]): 0 | Plant response rating (0 to 10; 0 is no effect, 10 is complete control), Rape (rape; Rate 250 g/ha, Postemergence): 0 | Rape plant response rating (rape; [7]): 0 | Soybean plant response rating (soybean; [1]): 0 | Soybean plant response rating (0 to 10 scale) (soybean; [2]): 0 | Soybean plant response rating (soybean; [3]): 0 | Soybean plant response rating (soybean; [4]): 0 | Soybean plant response rating (soybean; [5]): 1 | Soybean plant response rating (soybean; [6]): 2 | Plant response rating (0 to 10; 0 is no effect, 10 is complete control), Soybean (soybean; Rate 250 g/ha, Postemergence): 2 | Soybean plant response rating (soybean; [7]): 3 | Sugarbeets plant response rating (sugar beet; [1]): 0 | Sugarbeets plant response rating (0 to 10 scale) (sugar beet; [2]): 0 | Sugarbeets plant response rating (sugar beet; [3]): 0 | Sugarbeets plant response rating (sugar beet; [4]): 6 | Sugarbeets plant response rating (sugar beet; [5]): 0 | Sugarbeets plant response rating (sugar beet; [6]): 0 | Plant response rating (0 to 10; 0 is no effect, 10 is complete control), Sugarbeets (sugar beet; Rate 250 g/ha, Postemergence): 0 | Sugarbeets plant response rating (sugar beet; [7]): 7 | Velvetleaf plant response rating (velvetleaf; [1]): 0 | Velvetleaf plant response rating (velvetleaf; [3]): 0 | Velvetleaf plant response rating (velvetleaf; [4]): 2 | Velvetleaf plant response rating (velvetleaf; [5]): 0 | Velvetleaf plant response rating (velvetleaf; [6]): 0 | Plant response rating (0 to 10; 0 is no effect, 10 is complete control), Velvetleaf (velvetleaf; Rate 250 g/ha, Postemergence): 0 | Wheat plant response rating (wheat; [1]): 0 | Wheat plant response rating (wheat; [3]): 0 | Wheat plant response rating (wheat; [4]): 0 | Wheat plant response rating (wheat; [5]): 0 | Wheat plant response rating (wheat; [6]): 0 | Plant response rating (0 to 10; 0 is no effect, 10 is complete control), Wheat (wheat; Rate 250 g/ha, Postemergence): 0 | Wild oats plant response rating (wild oat; [1]): 0 | Wild oats plant response rating (wild oat; [3]): 0 | Wild oats plant response rating (wild oat; [4]): 0 | Wild oats plant response rating (wild oat; [5]): 0 | Wild oats plant response rating (wild oat; [6]): 0 | Plant response rating (0 to 10; 0 is no effect, 10 is complete control), Wild oats (wild oat; Rate 250 g/ha, Postemergence): 0 | Nutsedge plant response rating (purple nutsedge; [1]): 0 | Nutsedge plant response rating (0 to 10 scale) (purple nutsedge; [2]): 0 | Nutsedge plant response rating (purple nutsedge; [3]): 0 | Nutsedge plant response rating (purple nutsedge; [4]): 0 | Nutsedge plant response rating (purple nutsedge; [5]): 0 | Nutsedge plant response rating (purple nutsedge; [6]): 0 | Plant response rating (0 to 10; 0 is no effect, 10 is complete control), Nutsedge (purple nutsedge; Rate 250 g/ha, Postemergence): 0 | Nutsedge plant response rating (purple nutsedge; [7]): 0
